In patent publication US6613322B2, “Method for treating a subject suffering from conditions associated with an extracellular zinc sphingomyelinase” (The Trustees of Columbia University in the City of New York, priority 1997, dated 2003):

Target: T1, S-SMase (Mus musculus, UniProt Q04519)
T1 construct: endogenous in cells; host or cells: J774.A1 macrophages, serum-free conditioned medium
T1 sequence (Q04519 45-627): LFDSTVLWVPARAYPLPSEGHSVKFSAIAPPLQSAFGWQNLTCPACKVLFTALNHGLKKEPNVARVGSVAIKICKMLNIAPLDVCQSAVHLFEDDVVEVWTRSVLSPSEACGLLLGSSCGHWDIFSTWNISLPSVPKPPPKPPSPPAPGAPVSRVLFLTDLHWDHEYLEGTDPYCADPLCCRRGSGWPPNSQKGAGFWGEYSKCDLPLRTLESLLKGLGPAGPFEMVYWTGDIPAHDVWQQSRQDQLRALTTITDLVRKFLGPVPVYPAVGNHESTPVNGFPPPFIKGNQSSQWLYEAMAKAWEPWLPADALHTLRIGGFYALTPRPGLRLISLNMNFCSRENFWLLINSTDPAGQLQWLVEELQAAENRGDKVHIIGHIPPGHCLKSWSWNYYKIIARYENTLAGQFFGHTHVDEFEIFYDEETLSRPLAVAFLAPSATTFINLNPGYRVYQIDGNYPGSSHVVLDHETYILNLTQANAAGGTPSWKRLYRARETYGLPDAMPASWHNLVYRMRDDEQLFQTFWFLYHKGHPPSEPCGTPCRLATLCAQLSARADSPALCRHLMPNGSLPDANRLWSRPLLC
Assay: SMase assay of conditioned medium from J774 macrophages (SM micelles, pH 5.0)
Format: biochemical
Settings: 0.1 mM ZnCl2 versus 5 mM EDTA
Experimental: FIGS. 14A-B. Sequential chelation and addition of Zn^2+ to secreted and intracellular SMase. Serum-free conditioned medium and a cell homogenate from J774 macrophages were prepared as described in “Experimental Procedures”. FIG. 14A, conditioned medium (CM) was assayed for SMase activity using 250 nM [^3H]sphingomyelin in Triton X-100 micelles in the presence of either 5 mM EDTA (first bar) or 0.1 mM ZnCl2 (second bar) for 1 h at 37° C. at pH 5.0. An aliquot of the Zn-activated conditioned medium was then incubated for 18 h in the presence of 10 mM EDTA, 10 mM 1,10-phenanthroline, and 0.6% Triton X-100 at 4° C. (EDTA PHNANTH) and then assayed for SMase activity (third bar). After chelation, a portion of this partially inactivated conditioned medium was then dialyzed against zinc-containing buffer C (150 mM NaCl, 10 mM Tris-HCl, 1 mM ZnCl2, 0.6% Triton X-100, pH 7.4) for 18 h and then assayed for SMase activity (fourth bar). FIG. 14B, an aliquot of cell homogenate (Cell Homgn) was assayed for SMase activity in the presence of assay buffer alone (first bar), 5 mM EDTA (second bar), or 0.1 mM ZnCl2 (third bar). Another aliquot of cell homogenate was incubated for 8 h in the presence of 10 mM EDTA, 10 mm 1,10-phenanthroline, and 0.6% Triton X-100 (EDTA PHNANTH) at 4° C. and then assayed for SMase activity (fourth bar). An aliquot of this chelator-treated cell homogenate was then dialyzed against zinc-containing buffer C for 18 h and then assayed for SMase activity (fifth bar).
SMase Assay—As previously described (Schissel et al., 1996), the standard 200-μl assay mixture consisted of up to 40 μl of sample (conditioned media or homogenized cells; see above) and a volume of assay buffer (0.1 M sodium acetate, pH 5.0) to bring the volume to 160 μl. […] The ceramide spots were scraped and directly counted to quantify [^3H]ceramide. Typically, the assay reactions contained approximately 20 μg of cellular homogenate protein and a volume of conditioned media derived from a quantity of cells equivalent to approximately 50 μg of cellular protein.

**Q.** Which “activation of S-SMase” value does the source give for `[Cl-].[Cl-].[Zn+2]` [Zn^2+, ZnCl2] here?
**A.** The value was “markedly activated”.
